# Experiments:
# Caspase-3 = target: T1, Caspase-3 (Homo sapiens, UniProt P42574); test: Inhibition of caspase-3 (unknown origin) by microplate reader analysis
# T1 sequence (P42574 whole entry): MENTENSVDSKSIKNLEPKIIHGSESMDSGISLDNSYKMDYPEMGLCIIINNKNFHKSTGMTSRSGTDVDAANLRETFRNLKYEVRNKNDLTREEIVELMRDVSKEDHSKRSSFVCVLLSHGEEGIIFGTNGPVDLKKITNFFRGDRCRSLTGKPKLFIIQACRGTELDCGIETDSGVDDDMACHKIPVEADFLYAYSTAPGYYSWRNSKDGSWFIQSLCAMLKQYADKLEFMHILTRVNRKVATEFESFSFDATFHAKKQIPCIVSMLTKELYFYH
# [1] = target: T2, Ubiquitin carboxyl-terminal hydrolase 28 (Homo sapiens, UniProt Q96RU2); test: Inhibition of USP28 (unknown origin)
# T2 sequence (Q96RU2 whole entry): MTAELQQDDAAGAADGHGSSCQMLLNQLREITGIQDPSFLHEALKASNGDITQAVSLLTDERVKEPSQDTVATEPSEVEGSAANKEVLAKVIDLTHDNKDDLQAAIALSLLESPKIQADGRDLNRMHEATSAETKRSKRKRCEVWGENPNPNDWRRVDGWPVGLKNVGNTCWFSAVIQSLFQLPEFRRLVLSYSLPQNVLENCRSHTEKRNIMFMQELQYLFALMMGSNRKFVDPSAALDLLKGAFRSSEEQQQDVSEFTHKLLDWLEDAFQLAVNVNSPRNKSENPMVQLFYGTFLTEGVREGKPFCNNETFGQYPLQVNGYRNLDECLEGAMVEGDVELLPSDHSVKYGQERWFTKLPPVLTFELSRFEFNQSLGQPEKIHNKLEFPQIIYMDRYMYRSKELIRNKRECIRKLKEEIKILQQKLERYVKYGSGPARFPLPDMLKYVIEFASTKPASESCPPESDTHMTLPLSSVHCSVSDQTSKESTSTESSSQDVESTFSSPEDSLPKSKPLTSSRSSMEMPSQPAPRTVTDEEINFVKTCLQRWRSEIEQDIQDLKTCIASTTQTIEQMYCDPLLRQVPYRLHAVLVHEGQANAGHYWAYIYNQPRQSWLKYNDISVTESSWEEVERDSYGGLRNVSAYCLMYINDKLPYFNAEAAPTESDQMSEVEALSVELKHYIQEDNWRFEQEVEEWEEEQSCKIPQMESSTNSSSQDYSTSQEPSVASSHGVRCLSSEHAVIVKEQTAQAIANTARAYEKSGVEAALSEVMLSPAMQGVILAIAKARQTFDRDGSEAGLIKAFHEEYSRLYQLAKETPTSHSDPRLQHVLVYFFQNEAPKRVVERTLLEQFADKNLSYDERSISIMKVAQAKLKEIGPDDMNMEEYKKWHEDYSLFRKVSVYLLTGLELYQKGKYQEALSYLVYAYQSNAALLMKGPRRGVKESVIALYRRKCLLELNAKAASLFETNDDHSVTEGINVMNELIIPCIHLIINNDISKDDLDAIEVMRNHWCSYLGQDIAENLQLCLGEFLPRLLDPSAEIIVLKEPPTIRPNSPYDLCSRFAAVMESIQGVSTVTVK
# HCT-116 = test: Antiproliferative activity against human HCT-116 cells assessed as reduction in cell viability incubated for 48 hrs by MTT assay; format: functional, cell-based; conditions: HCT-116, 48 h
# [2] = target: T3, Ubiquitin carboxyl-terminal hydrolase 19 (Homo sapiens, UniProt O94966); test: Inhibition of C-terminal 6-His tagged USP19 (unknown origin) (1 to 1290 residues) using Ub-Rh110MP as substrate by fluorescence based assay
# T3 sequence (O94966 whole entry): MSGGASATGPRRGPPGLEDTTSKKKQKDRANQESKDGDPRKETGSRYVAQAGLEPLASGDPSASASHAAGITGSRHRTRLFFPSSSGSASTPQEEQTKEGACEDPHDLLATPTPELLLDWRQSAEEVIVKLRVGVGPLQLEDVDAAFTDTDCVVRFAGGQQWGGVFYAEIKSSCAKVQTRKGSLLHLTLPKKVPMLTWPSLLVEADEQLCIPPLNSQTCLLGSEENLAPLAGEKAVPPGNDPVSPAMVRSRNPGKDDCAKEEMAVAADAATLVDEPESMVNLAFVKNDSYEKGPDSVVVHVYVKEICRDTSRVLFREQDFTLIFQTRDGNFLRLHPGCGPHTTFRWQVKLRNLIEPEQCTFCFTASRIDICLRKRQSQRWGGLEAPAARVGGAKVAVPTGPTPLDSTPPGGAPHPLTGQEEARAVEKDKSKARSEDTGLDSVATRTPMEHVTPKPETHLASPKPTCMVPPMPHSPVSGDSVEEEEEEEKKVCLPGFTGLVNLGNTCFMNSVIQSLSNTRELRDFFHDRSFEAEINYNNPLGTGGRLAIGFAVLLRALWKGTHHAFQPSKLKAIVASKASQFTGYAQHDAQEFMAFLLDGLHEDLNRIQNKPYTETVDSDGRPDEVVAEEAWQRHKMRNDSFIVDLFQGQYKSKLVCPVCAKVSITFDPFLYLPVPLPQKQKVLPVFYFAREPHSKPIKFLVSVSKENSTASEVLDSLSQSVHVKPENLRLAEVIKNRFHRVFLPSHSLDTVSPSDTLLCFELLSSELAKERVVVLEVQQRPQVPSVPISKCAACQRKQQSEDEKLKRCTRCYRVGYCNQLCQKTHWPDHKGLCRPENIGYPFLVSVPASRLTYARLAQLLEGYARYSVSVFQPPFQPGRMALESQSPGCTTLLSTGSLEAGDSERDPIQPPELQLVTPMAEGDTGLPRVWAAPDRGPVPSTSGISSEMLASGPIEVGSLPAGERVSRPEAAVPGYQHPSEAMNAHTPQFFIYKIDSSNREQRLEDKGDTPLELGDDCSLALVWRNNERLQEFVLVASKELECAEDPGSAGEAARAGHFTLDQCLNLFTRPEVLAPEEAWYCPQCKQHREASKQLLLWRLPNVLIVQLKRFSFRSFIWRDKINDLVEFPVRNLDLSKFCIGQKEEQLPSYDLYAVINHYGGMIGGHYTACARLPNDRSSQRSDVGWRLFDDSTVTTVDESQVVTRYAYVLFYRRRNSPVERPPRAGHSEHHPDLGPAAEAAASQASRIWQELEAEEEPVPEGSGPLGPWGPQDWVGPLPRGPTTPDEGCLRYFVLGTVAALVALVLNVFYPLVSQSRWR
# [3] = target: Ubiquitin carboxyl-terminal hydrolase 7 (Homo sapiens, UniProt Q93009); test: Inhibition of full length His-tagged human recombinant USP7
# [4] = target: T4, Ubiquitin carboxyl-terminal hydrolase isozyme L1 (Homo sapiens, UniProt P09936); test: Inhibition of human UCH-L1
# T4 sequence (P09936 whole entry): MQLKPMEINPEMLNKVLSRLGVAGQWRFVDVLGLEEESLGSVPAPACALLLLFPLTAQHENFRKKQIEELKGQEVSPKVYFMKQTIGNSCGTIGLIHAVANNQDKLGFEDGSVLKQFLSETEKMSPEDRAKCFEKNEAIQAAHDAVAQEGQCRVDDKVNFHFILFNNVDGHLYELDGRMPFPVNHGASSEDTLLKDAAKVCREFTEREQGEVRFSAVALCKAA
# [5] = target: T4, Ubiquitin carboxyl-terminal hydrolase isozyme L1; test: Inhibition of His-tagged UCH-L1 (unknown origin) expressed in Escherichia coli BL21 (DE3) by fluorescence based analysis
# [6] = target: T4, Ubiquitin carboxyl-terminal hydrolase isozyme L1; test: Inhibition of recombinant wild type UCH-L1 (unknown origin) by fluorescence based analysis
# Ubiquitin carboxyl-terminal hydrolase 7, sequence (Q93009 whole entry): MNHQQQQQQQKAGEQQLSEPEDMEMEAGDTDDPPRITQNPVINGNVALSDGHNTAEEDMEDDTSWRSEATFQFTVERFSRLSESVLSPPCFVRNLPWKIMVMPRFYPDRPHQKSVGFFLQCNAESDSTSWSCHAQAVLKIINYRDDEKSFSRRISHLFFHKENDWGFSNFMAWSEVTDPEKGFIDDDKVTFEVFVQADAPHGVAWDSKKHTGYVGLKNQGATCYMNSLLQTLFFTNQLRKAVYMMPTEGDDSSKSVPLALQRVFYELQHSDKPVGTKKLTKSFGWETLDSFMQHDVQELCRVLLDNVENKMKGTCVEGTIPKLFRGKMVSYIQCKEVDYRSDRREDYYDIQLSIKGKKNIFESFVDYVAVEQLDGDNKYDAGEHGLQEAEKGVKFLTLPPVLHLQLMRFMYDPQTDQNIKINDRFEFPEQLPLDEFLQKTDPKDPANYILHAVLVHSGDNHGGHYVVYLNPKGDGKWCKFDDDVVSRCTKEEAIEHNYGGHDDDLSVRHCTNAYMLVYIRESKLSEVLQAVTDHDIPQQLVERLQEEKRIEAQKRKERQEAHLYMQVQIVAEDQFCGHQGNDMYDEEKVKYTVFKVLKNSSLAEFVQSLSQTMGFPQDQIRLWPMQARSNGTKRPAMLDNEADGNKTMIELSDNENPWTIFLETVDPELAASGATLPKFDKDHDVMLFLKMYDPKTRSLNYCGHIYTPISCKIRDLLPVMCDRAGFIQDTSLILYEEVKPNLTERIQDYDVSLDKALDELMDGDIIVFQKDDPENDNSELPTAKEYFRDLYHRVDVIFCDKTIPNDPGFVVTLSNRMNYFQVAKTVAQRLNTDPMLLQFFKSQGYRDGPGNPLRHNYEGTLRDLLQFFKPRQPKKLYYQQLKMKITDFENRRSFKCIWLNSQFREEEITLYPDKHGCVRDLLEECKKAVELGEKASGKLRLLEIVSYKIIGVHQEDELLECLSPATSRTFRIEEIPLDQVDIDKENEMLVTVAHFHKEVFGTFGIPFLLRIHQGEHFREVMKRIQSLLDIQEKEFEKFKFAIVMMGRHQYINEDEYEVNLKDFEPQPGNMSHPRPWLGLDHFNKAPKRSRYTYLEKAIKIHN
smiles,measurement,setting,value
C=CC(=O)N1C/C(=C\c2ccc([N+](=O)[O-])cc2)C(=O)/C(=C/c2ccc([N+](=O)[O-])cc2)C1,IC50,Caspase-3,1050 nM
OCCNCc1cc(Br)ccc1OCc1ccccc1,IC50,[1],29600 nM
Cc1ccc(S(=O)(=O)Nc2cc(C(F)(F)F)ccc2C(=O)Nc2nc(-c3ccccc3)cs2)cc1,IC50,HCT-116,1100 nM
O=C1c2ccccc2C(=O)c2oc(-c3ccc(F)cc3)nc21,IC50,[2],880 nM
O=C1c2ccccc2C(=O)c2oc(-c3ccccc3)nc21,IC50,[2],544 nM
C=CC(=O)N1CC/C(=C\c2ccc(F)c([N+](=O)[O-])c2)C(=O)/C(=C/c2ccc(F)c([N+](=O)[O-])c2)C1,IC50,Caspase-3,580 nM
O=C(CCc1ccccc1)N1CCC(O)(Cn2cnc3cc(Cl)ccc3c2=O)CC1,IC50,[3],193 nM
CCc1ccc(S(=O)(=O)Nc2ccc(-c3ccc(NS(=O)(=O)c4ccc(CC)cc4)cc3)cc2)cc1,IC50,[4],15000 nM
COC(=O)CC[C@H](NC(=O)[C@H](C)NC[C@@H](NC(=O)OCc1ccccc1)C(C)C)C(=O)CF,IC50,[5],7700 nM
N#CN1CCC[C@H]1C(=O)N1CCc2c(-c3cn[nH]c3C(F)(F)F)cccc21,IC50,[6],670 nM

# — ChEMBL document CHEMBL5518197, “Recent advances in the development of deubiquitinases inhibitors as antitumor agents” (Eur J Med Chem, 2024)
